According to patent US20240139157A1, “Novel Tubulin Polymerization Inhibitor for Cancer Therapy” (Board of Regents, The University of Texas System, priority 2022, published 2024):

Experiments:
Jurkat cell line = test: Differential nuclear staining cytotoxicity assay, Jurkat; assay type: cell-based; details: Homo sapiens, read-out: CC50 (50% cytotoxic concentration)
Excerpt: In this illustrative example, PTA-1 can be identified through compound screening by performing differential nuclear staining assay on acute lymphoblastic leukemia CEM T-cell line. Differential nuclear staining assay measures cell viability using Hoechst 33342 fluorescent stain and propidium iodide dyes that stain all nuclei and dead cell nuclei. With reference now to FIG. 2, a table for evaluating cytotoxicity of PTA-1 on different cell lines is depicted in accordance with an illustrative embodiment. In FIG. 2, PTA-1 with chemical structure 100 shown in FIG. 1 is tested to determine cytotoxic activities of PTA-1 on different cell lines. In table 200, column 202 indicates the type of cells that are used to test cytotoxic activities of PTA-1, column 204 indicates the cell line used to test cytotoxic activities of PTA-1, column 206 indicates the CC50 values for different cell lines, and column 208 indicates the length of time that different cell lines are exposed to PTA-1. […] In this illustrative example, a lower CC50 value for a cell line indicates a higher level of PTA-1 cytotoxicity, meaning that PTA-1 is more toxic to the cell line.

[1] = Differential nuclear staining cytotoxicity assay, A549; assay type: cell-based; details: human; CC50 in non-cancerous cells divided by CC50 in A549; read-out: Selective cytotoxicity index (SCI)
Excerpt: (§1) In this illustrative example, PTA-1 can be identified through compound screening by performing differential nuclear staining assay on acute lymphoblastic leukemia CEM T-cell line. Differential nuclear staining assay measures cell viability using Hoechst 33342 fluorescent stain and propidium iodide dyes that stain all nuclei and dead cell nuclei.
(§2) With reference now to FIG. 2, a table for evaluating cytotoxicity of PTA-1 on different cell lines is depicted in accordance with an illustrative embodiment. In FIG. 2, PTA-1 with chemical structure 100 shown in FIG. 1 is tested to determine cytotoxic activities of PTA-1 on different cell lines.
(§3) In table 200, column 202 indicates the type of cells that are used to test cytotoxic activities of PTA-1, column 204 indicates the cell line used to test cytotoxic activities of PTA-1, column 206 indicates the CC50 values for different cell lines, and column 208 indicates the length of time that different cell lines are exposed to PTA-1. […]
(§4) In this illustrative example, the selective cytotoxicity index value is used to determine if a compound has activity preferentially toward cancer cells. […] The selective cytotoxicity index (SCI) value is calculated by dividing the CC50 of the compound in non-cancerous cells (HS27 human fibroblasts or MCF-10A breast epithelial cells) by the CC50 in cancer cells. […]

[2] = test system: A549 cell line for lung cancer; test: as above; assay type: cell-based; details: A549, among all cancerous cell lines
Excerpt: as §1, §2, §3, §4

[3] = Differential nuclear staining cytotoxicity assay, MDA-MB-231; assay type: cell-based; details: human; CC50 in MCF10A divided by CC50 in MDA-MB-231; read-out: Selective cytotoxicity index (SCI)
Excerpt: as §1, §2, §3, §4

MDA-MB-231 cell line = test: as above; assay type: cell-based; details: MDA-MB-231, among all cancerous cell lines
Excerpt: as §1, §2, §3, §4

[4] = test system: MCF10A cell line (non-cancerous breast epithelial cells); test: Differential nuclear staining cytotoxicity assay, MCF10A; assay type: cell-based; details: MCF10A non-cancerous cell line vs cancerous lines
Excerpt: as §1, §2, §3, §4

[5] = test system: HS27 human fibroblasts (non-cancerous); test: Differential nuclear staining cytotoxicity assay, HS27; assay type: cell-based; details: HS27 non-cancerous cell line vs cancerous lines
Excerpt: as §1, §2, §3, §4

[6] = Differential nuclear staining cytotoxicity assay, NALM6; assay type: cell-based; details: human; CC50 in non-cancerous cells divided by CC50 in NALM6; read-out: Selective cytotoxicity index (SCI)
Excerpt: as §1, §2, §3, §4

MDA-MB-231 cells = test: Annexin V assay by flow cytometry (phosphatidylserine externalization); assay type: cell-based
Excerpt: Phosphatidylserine externalization is a cellular process that involves the translocation of phosphatidylserine from the inner leaflet of the cell's plasma membrane to the outer leaflet. The externalization of phosphatidylserine is recognized by other cells as a signal for engulfment and removal without causing inflammation or damage.
The plot illustrated in FIG. 3 was generated by Annexin V assay analyzed by flow cytometry showing the externalization of the phospholipid phosphatidylserine (PS). Treatment of MDA-MB-231 cells with PTA-1 at concentrations of 10 μM and 20 μM for 24 hours induces apoptosis as shown by PS externalization. Each bar represents the average of at least three technical replicates.

[7] = test system: caspase-3 in MDA-MB-231 cells; test: Caspase-3 activation, NucView 488 substrate, flow cytometry; assay type: cell-based
Excerpt: FIG. 4 depicts a plot illustrating PTA-1 induced caspase-3 activation in accordance with an illustrative embodiment. In FIG. 4, the induction of apoptosis from PTA-1 is corroborated by detecting the activation of the enzyme caspase-3. The fluorogenic reagent NucView 488 caspase-3 substrate was used to detect the activation of caspase 3 via flow cytometry. […] The average of 3 replicates is represented by each bar.
Caspase enzymes are activated during apoptosis and eventually result in DNA cleavage. In this example, caspase-3 is activated after exposure of the MDA-MB-231 cells at a concentration of 10 μM and 20 μM of PTA-1. […] The data shown in FIG. 4 corroborate the induction of apoptosis as the mechanism of cell death.

MDA-MB-231 cell cycle = test: Cell cycle analysis; assay type: cell-based
Excerpt: FIGS. 5A-5D show the percentages of cells that are affected in different phase after treatment of PTA-1.
FIGS. 5A-5D illustrate how PTA-1 alters the progression of the MDA-MB-231 cell cycle. Etoposide is used as a positive control. FIG. 5A illustrates PTA-1 induced DNA fragmentation as denoted in the sub G0/G1 phase.

[8] = test system: microtubules and microfilaments of MDA-MB-231 cells; test: Cytoskeleton imaging by fluorescence microscopy; assay type: cell-based; details: 10 μM, 4 hours
Excerpt: FIG. 8 illustrates alterations in cytoskeletal structures of MDA-MB-231 cells in response to treatment with PTA-1 in accordance with an illustrative embodiment. To test the hypothesis that PTA-1 acts as a tubulin inhibitor, we tested if it could cause alterations in the microtubule organization of MDA-MB-231 cells.
Disruption of cellular microtubules of MDA-MB-231 cells can be assessed by imaging microtubules using fluorescence microscopy.

tubulin = test: Tubulin polymerization kinetics (absorbance at 340 nm); assay type: biochemical
Excerpt: FIG. 9 depicts a graph illustrating tubulin polymerization of cells treated with PTA-1 in accordance with an illustrative embodiment. Graph 900 illustrates the kinetic curves of four different treatments for tubulin polymerization.
In this illustrative example, absorbance is directly correlated with tubulin polymerization. Therefore, if polymerization happens, there is an increase in the absorbance at 340 nm. […] In graph 900 tubulin polymerization can be clearly observed from the increasing absorbance after treatment with PTX. In this example, tubulin polymerization for cells treated with PTX drops immediately after 10 minutes.

SMILES: COc1ccc(-c2cnn(CC(=O)Nc3cnn(C)n3)c2)cc1C(F)(F)F [PTA-1, 2-{4-[4-methoxy-3-(trifluoromethyl)phenyl]-1H-pyrazol-1-yl}-N-(2-methyl-2H-1,2,3-triazol-4-yl)acetamide]
- CC50 (Jurkat cell line): 0.32 µM
- selectivity ratio [1]: 105
- Sensitivity to PTA-1 (CC50 comparison) [2]: most sensitive
- selectivity ratio [3]: 4.73
- Sensitivity to PTA-1 (CC50 comparison) (MDA-MB-231 cell line): least sensitive
- Sensitivity to PTA-1 (CC50 comparison) [4]: significantly lower sensitivity
- Sensitivity to PTA-1 (CC50 comparison) [5]: significantly lower sensitivity
- selectivity ratio [6]: 8.65
- Cell population with phosphatidylserine externalization (MDA-MB-231 cells; 10 μM, 24 hours): 59.4%
- Cell population with phosphatidylserine externalization (MDA-MB-231 cells; 20 μM, 24 hours): 59.7%
- Caspase-3 activation ([7]; 10 μM): significantly induced the activation of Caspase 3
- Caspase-3 activation ([7]; 20 μM): significantly induced the activation of Caspase 3
- Cells in the G2/M phase (MDA-MB-231 cell cycle; 1.25 μM): 53.25%
- Cells in the S phase (MDA-MB-231 cell cycle; 1.25 μM): 19.8%
- DNA fragmentation (sub G0/G1 phase) vs DMSO and untreated (MDA-MB-231 cell cycle; 1.25 μM): significantly higher rates of DNA fragmentations
- Cells in the G2/M phase (MDA-MB-231 cell cycle; 2.5 μM): 71.5%
- Cells in the S phase (MDA-MB-231 cell cycle; 2.5 μM): 15.34%
- DNA fragmentation (sub G0/G1 phase) vs DMSO and untreated (MDA-MB-231 cell cycle; 2.5 μM): significantly higher rates of DNA fragmentations
- Cells in the G2/M phase (MDA-MB-231 cell cycle; 5 μM): 66.47%
- Cells in the S phase (MDA-MB-231 cell cycle; 5 μM): 24.6%
- DNA fragmentation (sub G0/G1 phase) vs DMSO and untreated (MDA-MB-231 cell cycle; 5 μM): significantly higher rates of DNA fragmentations
- Cells in the G0/G1 phase (MDA-MB-231 cell cycle; different concentrations): did not result in a higher percentage of cells in the G0/G1 phase
- Microfilament structure (phalloidin-Alexa-568 staining) [8]: remained unaltered
- Microtubule organization (α-tubulin-Alexa-488 staining) [8]: disrupts the microtubule organization
- Absorbance (tubulin polymerization) (tubulin; 340 nm, after 60 minutes of treatment, DMSO 0.3702): 0.3247
- Duration of nucleation phase (absorbance starts increasing) (tubulin; absorbance at 340 nm): four
- Kinetic curve of tubulin polymerization compared with DMSO (tubulin; absorbance at 340 nm): never reached the absorbance values of cells treated with DMSO
- Time to reach steady state of tubulin polymerization (tubulin; absorbance at 340 nm): 20 min

SMILES: COc1cc([C@@H]2c3cc4c(cc3[C@@H](O[C@@H]3O[C@@H]5CO[C@@H](C)O[C@H]5[C@H](O)[C@H]3O)[C@H]3COC(=O)[C@H]23)OCO4)cc(OC)c1O [etoposide, reference compound]
- Cells in the G2/M phase (MDA-MB-231 cell cycle; positive control): 15.4%
- Cells with DNA fragmentation (sub G0/G1 phase) (MDA-MB-231 cell cycle; positive control): 28.6%

SMILES: CC(=O)O[C@H]1C(=O)[C@@]2(C)[C@H]([C@H](OC(=O)c3ccccc3)[C@]3(O)C[C@H](OC(=O)[C@H](O)[C@@H](NC(=O)c4ccccc4)c4ccccc4)C(C)=C1C3(C)C)[C@]1(OC(C)=O)CO[C@@H]1C[C@@H]2O [paclitaxel, reference compound]
- Growth phase of tubulin polymerization (tubulin; absorbance at 340 nm): started immediately
- Time after which tubulin polymerization drops (tubulin; absorbance at 340 nm): 10 min

SMILES: OO [H2O2, reference compound]
- Cell population with phosphatidylserine externalization (MDA-MB-231 cells; positive control): 49.9%

SMILES: CC[C@]1(O)C[C@@H]2CN(CCc3c([nH]c4ccccc34)[C@@](C(=O)OC)(c3cc4c(cc3OC)N(C)[C@H]3[C@@](O)(C(=O)OC)[C@H](OC(C)=O)[C@]5(CC)C=CCN6CC[C@]43[C@@H]65)C2)C1 [Vinblastine, reference compound]
- Duration of nucleation phase (absorbance starts increasing) (tubulin; absorbance at 340 nm): four
- Kinetic curve of tubulin polymerization compared with DMSO (tubulin; absorbance at 340 nm): never reached the absorbance values of cells treated with DMSO
